Experimental data: patent publication US9828379B2 (priority 2013, dated 2017)
In brackets after ≈: the same amount, converted by molar mass.

Legend:
MAGL [1] = biological target: T1, MAGL (Mus musculus, UniProt O35678); assay: In vitro competitive activity-based protein profiling (Table 2, % inhibition at 1 μM); type: biochemical; settings: read-out: % Inhibition at 1 μM MAGL
T1 sequence (O35678 1-303): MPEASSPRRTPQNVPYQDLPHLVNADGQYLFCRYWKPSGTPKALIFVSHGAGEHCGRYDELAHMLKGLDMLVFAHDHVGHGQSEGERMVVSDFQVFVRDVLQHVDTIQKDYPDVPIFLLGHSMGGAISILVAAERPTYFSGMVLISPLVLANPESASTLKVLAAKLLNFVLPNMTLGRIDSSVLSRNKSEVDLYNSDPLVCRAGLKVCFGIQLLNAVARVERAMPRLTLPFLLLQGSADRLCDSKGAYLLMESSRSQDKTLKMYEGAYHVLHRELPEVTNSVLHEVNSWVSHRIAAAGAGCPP
Procedure: After 30 min, FP—Rh (1.0 μL, 50 μM in DMSO) was added and the mixture was incubated for another 30 min at 37° C. Reactions were quenched with SDS loading buffer (50 μL-4×) and run on SDS-PAGE.
Cell lysates were diluted with mock proteomes for use in competitive ABPP experiments.

Trypanosoma brucei = assay: Alamar Blue assay against Trypanosoma brucei; type: cell-based; settings: read-out: IC50 T. brucei
From the text: The ability of disclosed compounds to inhibit Trypanosoma brucei (T. brucei) can be assessed using the Alamar Blue® assay (Räz et al., 1997. The Alamar Blue® assay to determine drug sensitivity of African trypanosomes (T.b. rhodesiense and T.b. gambiense) in vitro. Acta Tropica 68, 139-147). Bloodstream form trypanosomes are cultivated in Minimum Essential Medium (MEM). Standard curves can be generated by serially diluting T. brucei in culture medium and measuring fluorescence and absorbance after a period of incubation with Alamar Blue®. A drug sensitivity assay can be performed as described for the LILIT (long incubation low inoculation test) previously described (Brun and Lun, 1994. Drug sensitivity of Chinese Trypanosoma evansi and Trypanosoma equiperdum isolates. Vet. Parasitol. 52, 37-46) with minor modifications. Briefly, bloodstream form trypanosomes can be inoculated into microtiter plates and incubated in the presence of various disclosed compound concentrations for a period of time. Background fluorescence and absorbance of the drug-containing medium are determined for each drug dilution. Wells without drug serve as controls. Alamar Blue® is added after a period of time and fluorescence and colorimetric development is later determined.

FAAH [2] = biological target: T2, FAAH (Mus musculus, UniProt O08914); assay: In vitro competitive activity-based protein profiling (Table 2, % inhibition at 1 μM); type: biochemical; settings: read-out: % Inhibition at 1 μM FAAH
T2 sequence (O08914 1-579): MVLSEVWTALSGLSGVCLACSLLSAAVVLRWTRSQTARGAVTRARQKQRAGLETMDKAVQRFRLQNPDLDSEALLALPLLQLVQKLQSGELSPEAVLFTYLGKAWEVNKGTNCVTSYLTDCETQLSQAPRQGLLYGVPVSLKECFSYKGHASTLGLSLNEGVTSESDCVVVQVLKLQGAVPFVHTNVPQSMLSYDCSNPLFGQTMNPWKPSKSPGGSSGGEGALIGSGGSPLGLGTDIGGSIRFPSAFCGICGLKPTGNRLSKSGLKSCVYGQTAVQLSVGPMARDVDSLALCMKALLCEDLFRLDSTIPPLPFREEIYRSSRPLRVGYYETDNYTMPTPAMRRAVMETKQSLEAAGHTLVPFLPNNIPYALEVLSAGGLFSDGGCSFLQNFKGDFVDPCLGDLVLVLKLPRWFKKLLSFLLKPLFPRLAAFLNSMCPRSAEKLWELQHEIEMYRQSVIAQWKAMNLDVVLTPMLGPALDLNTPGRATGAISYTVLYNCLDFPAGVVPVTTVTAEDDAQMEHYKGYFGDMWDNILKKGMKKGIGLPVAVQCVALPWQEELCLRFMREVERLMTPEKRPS

ABHD6 [3] = biological target: T3, ABHD6 (Mus musculus, UniProt Q8R2Y0); assay: as above; type: biochemical; settings: read-out: % Inhibition at 1 μM ABHD6
T3 sequence (Q8R2Y0 1-336): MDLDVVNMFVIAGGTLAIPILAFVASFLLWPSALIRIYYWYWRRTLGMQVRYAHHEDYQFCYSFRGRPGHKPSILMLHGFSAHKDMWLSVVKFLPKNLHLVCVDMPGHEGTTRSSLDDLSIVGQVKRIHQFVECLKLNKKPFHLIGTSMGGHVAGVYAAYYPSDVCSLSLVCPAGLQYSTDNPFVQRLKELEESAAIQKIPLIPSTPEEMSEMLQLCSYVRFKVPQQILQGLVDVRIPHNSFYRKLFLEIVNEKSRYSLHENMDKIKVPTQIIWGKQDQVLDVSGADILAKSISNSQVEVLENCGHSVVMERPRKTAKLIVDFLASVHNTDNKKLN

[4] = tested on: Mycobacterium tuberculosis H37Rv (pFCA-luxAB); assay: microbe, parasite or virus in culture; type: cell-based; settings: for inhibition at 100 µM: read-out: % Inhibition at 100 μM Mtb LORA
[5] = tested on: Mycobacterium Tuberculosis (Mtb); assay: Microplate Alamar Blue assay (MABA) against Mtb; type: cell-based
Procedure: The activity of disclosed compounds against Mtb can be assessed according to a method based on the microplate Alamar Blue® assay (MABA) (Collins and Franzblau, 1997. Microplate alamar blue assay versus BACTEC 460 system for high-throughput screening of compounds against Mycobacterium tuberculosis and Mycobacterium avium. Antimicrobial Agents and Chemotherapy 41, 1004-1009). Briefly, stock solutions of disclosed compounds are prepared and added to, for example, two wells of a microplate. One well is inoculated with broth containing Mtb. The second well receives only media in order to assess background fluorescence. For MICs, serial dilutions are performed in media. Each microplate is incubated for a period of time. After incubation, one control growth is developed with a mixture of Alamar Blue® solution and Tween 80. The plates are then reincubated. Afterwards, if the well turns pink, the dye mixture is placed into all wells and the plates are reincubated for an additional period of time. The mean fluorescence units (FU) of media-only wells are subtracted from all other wells. The results are expressed in terms of % inhibition defined as 1-(test well FU/mean FU of triplicate bacteria-only wells)×100. The MIC is defined as the lowest concentration effecting a reduction in fluorescence of ≧90% relative to bacteria-only controls.

ABHD6 [6] = biological target: T3, ABHD6; assay: biochemical; settings: in vitro competitive ABPP
Mouse brain MAGL = biological target: T4, Mouse brain MAGL (Mus musculus, UniProt O35678); assay: Mouse brain proteomes from inhibitor treated mice (oral gavage, ABPP analysis); type: in vivo; settings: p.o., sacrificed 4 h following administration
T4 construct: from tissue; host or cells: brain of wild-type C57Bl/6J mice dosed by oral gavage
T4 sequence (O35678 1-303): T1 sequence (O35678 1-303)

MAGL [7] = biological target: T1, MAGL; assay: biochemical; settings: mouse; in vitro competitive ABPP; read-out: Mouse (IC50 value, nM) MAGL
FAAH [8] = biological target: T2, FAAH; assay: biochemical; settings: in vitro competitive ABPP

Row | Structure (SMILES) | inhibition at 1 µM (MAGL [1]) [%] | IC50 (Trypanosoma brucei) [nM] | inhibition at 1 µM (FAAH [2]) [%] | inhibition at 1 µM (ABHD6 [3]) [%] | inhibition at 100 µM [4] [%] | MIC [5] [µM] | MIC ([4]; read-out: MIC Mtb LORA) [µM] | IC50 (ABHD6 [6]) [nM] | inhibition at 5 mg/kg (Mouse brain MAGL) [%] | IC50 (MAGL [7]) [nM] | IC50 (FAAH [8]) [nM]
1 | O=C(ON1C(=O)CCC1=O)N1CC2CN(Cc3ccc(Cl)cc3N3CCC4(CCOCC4)C3)CC2C1 (stereo not drawn) [Example 106, 2,5-Dioxopyrrolidin-1-yl 5-[(4-chloro-2-[8-oxa-2-azaspiro[4.5]decan-2-yl]phenyl)methyl]-octahydropyrrolo[3,4-c]pyrrole-2-carboxylate] | 25 to 75 | < 5000 | < 25 | < 25 | – | – | – | – | – | – | –
2 | O=C(ON1C(=O)CCC1=O)N1CC2CN(Cc3ccc(-c4ccccc4)cc3)CC2C1 (stereo not drawn) [Example 84, 2,5-Dioxopyrrolidin-1-yl 5-[(4-phenylphenyl)methyl]-octahydropyrrolo[3,4-c]pyrrole-2-carboxylate] | > 75 | – | > 75 | 25 to 75 | > 80 | 51 to 100 (≈ 21.4 to 41.9 µg/mL) | – | – | – | – | –
3 | CNC(=O)C(OC(=O)N1CC2CN(C(c3ccc(Cl)cc3)c3ccc(Cl)cc3)CC2C1)C(F)(F)F (stereo not drawn) [Example 125, 2,2,2-Trifluoro-1-(methylcarbamoyl)ethyl 5-[bis(4-chlorophenyl)methyl]-octahydropyrrolo[3,4-c]pyrrole-2-carboxylate] | 25 to 75 | – | < 25 | < 25 | > 80 | ≤ 50 | – | – | – | – | –
4 | O=C(OC(C(F)(F)F)C(F)(F)F)N1CC2CN(Cc3ccc(-c4ccccc4)cc3)CC2C1 (stereo not drawn) [Example 9, 1,1,1,3,3,3-Hexafluoropropan-2-yl 5-[(4-phenylphenyl)methyl]-octahydropyrrolo[3,4-c]pyrrole-2-carboxylate] | > 75 | – | 25 to 75 | 25 to 75 | > 80 | ≤ 50 | ≤ 50 | – | – | – | –
5 | CNC(=O)C(OC(=O)N1CC2CN(Cc3ccc(-c4ccccc4)cc3)CC2C1)C(F)(F)F (stereo not drawn) [Example 126, 2,2,2-Trifluoro-1-(methylcarbamoyl)ethyl 5-[(4-phenylphenyl)methyl]-octahydropyrrolo[3,4-c]pyrrole-2-carboxylate] | 25 to 75 | – | 25 to 75 | < 25 | > 80 | 51 to 100 (≈ 23.5 to 46.1 µg/mL) | – | – | – | – | –
6 | CCn1cc(CN2CC3CN(C(=O)OC(C(F)(F)F)C(F)(F)F)CC3C2)c(-c2ccc(N3CCCC3)cc2)n1 (stereo not drawn) [Example 67, 1,1,1,3,3,3-Hexafluoropropan-2-yl 5-([1-ethyl-3-[4-(pyrrolidin-1-yl)phenyl]-1H-pyrazol-4-yl]methyl)-octahydropyrrolo[3,4-c]pyrrole-2-carboxylate] | > 75 | – | < 25 | < 25 | – | – | – | 1000 to 10000 | 25 to 75 | < 100 | 1000 to 10000
7 | O=C(OC(C(F)(F)F)C(F)(F)F)N1CC2CN(Cc3cccc(Cl)c3N3CC[C@H](CF)C3)CC2C1 (stereo partly drawn) [Example 173, 1,1,1,3,3,3-hexafluoropropan-2-yl 5-([3-chloro-2-[(3S)-3-(fluoromethyl)pyrrolidin-1-yl]phenyl]methyl)-octahydropyrrolo[3,4-c]pyrrole-2-carboxylate] | > 75 | – | < 25 | 25 to 75 | – | – | – | > 10000 | 25 to 75 | < 100 | 1000 to 10000
8 | O=C(ON1C(=O)CCC1=O)N1CC2CN(C(c3ccc(Cl)cc3)c3ccc(Cl)cc3)CC2C1 (stereo not drawn) [Example 83, 2,5-Dioxopyrrolidin-1-yl 5-[bis(4-chlorophenyl)methyl]-octahydropyrrolo[3,4-c]pyrrole-2-carboxylate] | 25 to 75 | – | < 25 | < 25 | > 80 | ≤ 50 | – | – | – | – | –
9 | CC(=O)N1CCC2(CCN(c3ccccc3CN3CC4CN(C(=O)OC(C(F)(F)F)C(F)(F)F)CC4C3)C2)C1 (stereo not drawn) [Example 135, 1,1,1,3,3,3-hexafluoropropan-2-yl 5-[(2-[7-acetyl-2,7-diazaspiro[4.4]nonan-2-yl]phenyl)methyl]-octahydropyrrolo[3,4-c]pyrrole-2-carboxylate] | > 75 | – | < 25 | < 25 | – | – | – | 1000 to 10000 | ≤ 25 | < 100 | 1000 to 10000
